Measurements published in article PMC9870890 (Nature Communications, 2023).
“And” between values parts separate entries of the source, which are not always exact repeats. Equal entries are not always repeated.

Biological target: T1, M2RFL_WT (Homo sapiens, UniProt P08172)
T1 construct: made in house; host or cells: Sf9 membranes
T1 sequence (P08172 1-466): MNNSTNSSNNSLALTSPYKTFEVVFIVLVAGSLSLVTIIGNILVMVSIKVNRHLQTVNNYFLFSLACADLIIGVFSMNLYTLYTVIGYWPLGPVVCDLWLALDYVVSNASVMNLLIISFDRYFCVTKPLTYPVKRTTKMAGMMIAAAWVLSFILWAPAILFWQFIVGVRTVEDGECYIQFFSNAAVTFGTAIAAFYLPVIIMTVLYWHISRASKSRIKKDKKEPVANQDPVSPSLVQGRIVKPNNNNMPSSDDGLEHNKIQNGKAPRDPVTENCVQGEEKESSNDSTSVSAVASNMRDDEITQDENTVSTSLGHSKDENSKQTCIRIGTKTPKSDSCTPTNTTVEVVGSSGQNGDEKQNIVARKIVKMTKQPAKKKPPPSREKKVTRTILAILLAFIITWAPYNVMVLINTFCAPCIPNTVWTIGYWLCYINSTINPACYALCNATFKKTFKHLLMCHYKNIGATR
Experiment: [3H]-NMS competition binding (ACh competition, GoA titration), wild type full length M2R
Set-up: unit not given here
Method: Purified M2R receptor was reconstituted into high-density lipoprotein (HDL) particles constituting apolipoprotein A1(APOA1) and mixture of POPG: POPC lipids with 3:2 (mol:mol)ratio as previously described. […] Membranes or HDL particles were separated from excess [^3H]-NMS by Whatman GF/B filters using a Brandel 48-well harvester. The bound radioligand were read on a liquid scintillation counter (MicroBeta Jet, PerkinElmer). Data were analyzed by GraphPad Prism 9.2.0. […]
Data are given as mean
± SEM from 3 independent experiments.
M2RFL△9M_K383M and M2RFL_WT.
SEM from 3 independent experiments. […]

Structure (SMILES): CC(=O)OCC[N+](C)(C)C [ACh, acetylcholine]
- ACh competition curve data, Supplementary Fig. 4c (log[M] (ACh) -3): 7.417 and 5.223 and 6.047
- ACh competition curve data, Supplementary Fig. 4c (log[M] (ACh) -4): 27.7888 and 31.3709 and 30.2311
- ACh competition curve data, Supplementary Fig. 4c (log[M] (ACh) -5): 61.0434 and 71.3013 and 69.7784
- ACh competition curve data, Supplementary Fig. 4c (log[M] (ACh) -6): 79.8736 and 96.1082 and 98.1674
- ACh competition curve data, Supplementary Fig. 4c (log[M] (ACh) -7): 94.365 and 99.8819 and 105.753
- ACh competition curve data, Supplementary Fig. 4c (log[M] (ACh) -8): 97.3725 and 89.5377 and 100.935
